23 compounds from patent US20260027104A1, “NOVEL NAPHTHYL AND ISOQUINOLINE SULFONAMIDE DERIVATIVES” (Hoffmann-La Roche Inc., priority 2022, published 2026) can be followed below.

Sequence of human GPR17 short isoform (Q13304 29-367): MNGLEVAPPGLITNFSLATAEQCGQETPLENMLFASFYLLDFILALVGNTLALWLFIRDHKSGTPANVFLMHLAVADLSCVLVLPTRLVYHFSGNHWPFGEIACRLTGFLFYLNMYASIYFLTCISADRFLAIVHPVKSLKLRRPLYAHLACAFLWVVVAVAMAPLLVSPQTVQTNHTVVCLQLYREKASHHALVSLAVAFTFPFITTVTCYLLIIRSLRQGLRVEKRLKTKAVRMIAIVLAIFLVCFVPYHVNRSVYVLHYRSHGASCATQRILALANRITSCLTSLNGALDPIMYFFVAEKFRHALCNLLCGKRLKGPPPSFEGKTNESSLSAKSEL

The target of this test is human GPR17 short isoform (Homo sapiens, UniProt Q13304). Briefly: hGPR17 cAMP assay (GPR17 cAMP Assay Protocol, antagonist mode). It counts as cell-based. The following applies: CHO-K1 cells stably expressing untagged human GPR17 short isoform; EC80 of agonist MDL29,951; forskolin 15 μM; 30 min, room temperature; TR-FRET cAMP readout. The method, then: GPR17 cAMP Assay Protocol:
CHO-K1 cells stably expressing vector containing untagged human GPR17 short isoform (Roche) were cultured at 37° C./5% CO2 in DMEM (Dulbecco's Modified Eagle Medium):F-12 (1:1) supplemented with 10% foetal bovine serum and 400 μg/ml Geneticin.
Changes in intracellular cyclic adenosine monophosphate (cAMP) levels were quantified using the Nano-TRF Detection Assay kit (Roche Diagnostics, Cat. No. 05214386001). This assay allows for direct cAMP quantification in a homogeneous solution. cAMP is detected based on time-resolved fluorescence energy transfer (TR-FRET) and competitive binding of ruthenylated cAMP and endogenous cAMP to an anti-cAMP monoclonal antibody labeled with AlexaFluor-700. The Ruthenium complex serves as the FRET donor and transfers energy to AlexaFluor-700. The FRET signal is inversely proportional to the cAMP concentration.
CHO-GPR17S cells were detached with Accutase and resuspended in assay buffer consisting of Hank's Balanced Salt Solution (HBSS), 10 mM HEPES (4-(2-hydroxyethyl) piperazine-1-ethanesulfonic acid solution) and 0.1% bovine serum albumin (pH 7.4). The cells were seeded in black 384-well plates (Corning) at a density of 10′000 cells/20 μl assay buffer until the addition of compounds.
Test antagonist compounds were serially diluted in dimethyl sulfoxide (DMSO) and spotted in 384-well plates. The compounds were then diluted in BSS buffer supplemented with an EC80 concentration of MDL29,951 (3-(2-Carboxy-4,6-dichloroindol-3-yl)propionic acid) (GPR17 agonist) plus 3-Isobutyl-1-methylxanthine (IBMX) (0.5 mM final concentration) and added to the cells at room temperature. Forskolin (15 μM final concentration) was added 5 minutes after the test compounds and the cells were incubated at room temperature for 30 minutes. The assay was stopped by adding cAMP detection mix (containing detergents for cell lysis) for 90 minutes at room temperature.
Cellular cAMP was measured using a Paradigm reader (Molecular Devices). The raw data was used to calculate the FRET signal based on the assay's P-factor as per cAMP kit instructions. The data was normalized to the maximal activity of a reference antagonist and dose response curves were fitted to the percent activity of the test compounds using a sigmoidal dose response model (Genedata Screener).
Results in the hGPR17 cAMP assay are provided for compounds of formula I in Table 1
As to `N#CCc1cc(F)c(NS(=O)(=O)c2c[nH]c(=O)c3nc(Cl)ccc23)cc1F` [Example 28, 2-chloro-N-[4-(cyanomethyl)-2,5-difluoro-phenyl]-8-oxo-7H-1,7-naphthyridine-5-sulfonamide], the concentration for half-maximal inhibition (IC50) (as a rule, the concentration that gives 50% inhibition) amounted to 955 nM. As for `COc1nc(OCC(F)F)c(F)cc1NS(=O)(=O)c1cccc2ccc(Cl)cc12` [Example 19, 7-chloro-N-[6-(2,2-difluoroethoxy)-5-fluoro-2-methoxy-3-pyridyl]naphthalene-1-sulfonamide], the figure is 89 nM. As for `N#CCc1cc(F)c(NS(=O)(=O)c2cccc3nc(Cl)ccc23)cc1F` [Example 3, 2-chloro-N-[4-(cyanomethyl)-2,5-difluoro-phenyl]quinoline-5-sulfonamide], the figure is 217 nM. As for `O=c1[nH]cc(S(=O)(=O)Nc2cc(F)c(OC(F)F)nc2OC(F)F)c2ccc(Cl)cc12` [Example 27, N-[2,6-bis(difluoromethoxy)-5-fluoro-3-pyridyl]-7-chloro-1-keto-2H-isoquinoline-4-sulfonamide], the figure is 32 nM.

For `COc1nc(C2COC2)c(F)cc1NS(=O)(=O)c1cccc2nc(Cl)ccc12` [Example 7, 2-chloro-N-[5-fluoro-2-methoxy-6-(oxetan-3-yl)-3-pyridyl]quinoline-5-sulfonamide], the IC50 came to 431 nM. As for `COc1nc(CC#N)c(F)cc1NS(=O)(=O)c1cccc2nc(Cl)ccc12` [Example 5, 2-chloro-N-[6-(cyanomethyl)-5-fluoro-2-methoxy-3-pyridyl]quinoline-5-sulfonamide], the figure is 19 nM; as for `COc1nc(NS(=O)(=O)c2cccc3nc(Cl)ccc23)nc(OC)c1OC(F)F` [Example 51, 2-chloro-N-[5-(difluoromethoxy)-4,6-dimethoxy-pyrimidin-2-yl]quinoline-5-sulfonamide], 448 nM.

Consider `COc1nc(OCC(F)F)c(F)cc1NS(=O)(=O)c1cnc(N(C)C)c2cc(Cl)ccc12` [Example 41, 7-chloro-N-[6-(2,2-difluoroethoxy)-5-fluoro-2-methoxy-3-pyridyl]-1-(dimethylamino)isoquinoline-4-sulfonamide], for which the IC50 turned out to be 61 nM. Compared with the last compound, the IC50 is about 7.3-fold lower.

As to `COc1nc(OCC(F)F)c(F)cc1NS(=O)(=O)c1cccc2nc(Br)ccc12` [Example 54, 2-bromo-N-[6-(2,2-difluoroethoxy)-5-fluoro-2-methoxy-3-pyridyl]quinoline-5-sulfonamide], the IC50 amounted to 9 nM. As for `COc1nc(OCC(F)F)c(F)cc1NS(=O)(=O)c1cccc2c(N(C)C)cccc12` [Example 40, N-[6-(2,2-difluoroethoxy)-5-fluoro-2-methoxy-3-pyridyl]-5-(dimethylamino)naphthalene-1-sulfonamide], the figure is 13 nM; as for `COc1nc(OCC(F)F)c(F)cc1NS(=O)(=O)c1cncc2cc(Cl)ccc12` [Example 15, 7-chloro-N-[6-(2,2-difluoroethoxy)-5-fluoro-2-methoxy-3-pyridyl]isoquinoline-4-sulfonamide], 11 nM. As for `COc1nc(OCC(F)F)c(F)cc1NS(=O)(=O)c1cccc2nc(N(C)C)ccc12` [Example 31, N-[6-(2,2-difluoroethoxy)-5-fluoro-2-methoxy-3-pyridyl]-2-(dimethylamino)quinoline-5-sulfonamide], the figure is 65 nM. As for `COc1nc(OCC(F)F)c(F)cc1NS(=O)(=O)c1c[nH]c(=O)c2cc(Cl)ccc12` [Example 26], the figure is 5 nM; as for `CNc1ncc(S(=O)(=O)Nc2cc(F)c(OCC(F)F)nc2OC)c2ccc(Cl)cc12` [Example 43, 7-chloro-N-[6-(2,2-difluoroethoxy)-5-fluoro-2-methoxy-3-pyridyl]-1-(methylamino)isoquinoline-4-sulfonamide], 35 nM. As for `COc1nc(OCC(F)F)c(F)cc1NS(=O)(=O)c1cc(=O)n(C)c2cc(Cl)ccc12` [Example 37, 7-chloro-N-[6-(2,2-difluoroethoxy)-5-fluoro-2-methoxy-3-pyridyl]-2-keto-1-methyl-quinoline-4-sulfonamide], the IC50 is 246 nM. `COc1ncc(S(=O)(=O)Nc2cc(F)c(CC#N)cc2F)c2ccc(Cl)cc12` [Example 49, 7-chloro-N-[4-(cyanomethyl)-2,5-difluoro-phenyl]-1-methoxy-isoquinoline-4-sulfonamide] had an IC50 of 905 nM. As for `COc1nc(NS(=O)(=O)c2cncc3cc(Cl)ccc23)c(F)cc1OCC(F)F` [Example 14, 7-chloro-N-[5-(2,2-difluoroethoxy)-3-fluoro-6-methoxy-2-pyridyl]isoquinoline-4-sulfonamide], the figure is 415 nM; as for `COc1nc(OCC(F)F)c(F)cc1NS(=O)(=O)c1cccc2nc(Cl)ccc12` [Example 10, 2-chloro-N-[6-(2,2-difluoroethoxy)-5-fluoro-2-methoxy-3-pyridyl]quinoline-5-sulfonamide], 28 nM.

`CN(C)c1ncc(S(=O)(=O)Nc2cc(F)c(CC#N)cc2F)c2ccc(Cl)cc12` [Example 42, 7-chloro-N-[4-(cyanomethyl)-2,5-difluoro-phenyl]-1-(dimethylamino)isoquinoline-4-sulfonamide] returned an IC50 of 423 nM. As for `N#CCc1cc(F)c(NS(=O)(=O)c2c[nH]c(=O)c3ccccc23)cc1F` [Example 52, N-(4-(cyanomethyl)-2,5-difluorophenyl)-1-oxo-1,2-dihydroisoquinoline-4-sulfonamide], the figure is 594 nM; as for `N#CCc1cc(F)c(NS(=O)(=O)c2cncc3cc(Cl)ccc23)cc1F` [Example 12, 7-chloro-N-[4-(cyanomethyl)-2,5-difluoro-phenyl]isoquinoline-4-sulfonamide], 260 nM. As for `N#CCc1cc(F)c(NS(=O)(=O)c2c[nH]c(=O)c3c(Cl)c(Cl)ccc23)cc1F` [Example 38, 7,8-dichloro-N-[4-(cyanomethyl)-2,5-difluoro-phenyl]-1-keto-2H-isoquinoline-4-sulfonamide], the figure is 182 nM; as for `COc1nc(OCC(F)F)c(F)cc1NS(=O)(=O)c1cccc2nc(C(F)F)ccc12` [Example 35, N-[6-(2,2-difluoroethoxy)-5-fluoro-2-methoxy-3-pyridyl]-2-(difluoromethyl)quinoline-5-sulfonamide], 214 nM.
